Experimental data taken from patent publication US9115117B2, “Substituted piperidine compounds and their use as orexin receptor modulators” (JANSSEN PHARMACEUTICA NV, priority 2013, dated 2015).
Where a name gives a salt, the structure may show the parent alone.

What was measured:
rat orexin 1 receptor = rat orexin 1 receptor (Rattus norvegicus, UniProt P56718); assay: Rat orexin 1 receptor radioligand binding; conditions: HEK293 cells stably expressing rat orexin 1 receptor; apparent Ki; read-out: rOX1 Ki
Protocol: After centrifugation (2K×G, 5 min at 4° C.), the supernatant was aspirated and the pellets frozen and stored at −80° C. […] Each cell pellet from a 15 cm plate was resuspended in 10 mL, stored on ice, and homogenized for 45 sec prior to addition to the reactions. Competition binding experiments in 96 well polypropylene plates were performed using [^3H]-(1-(5-(2-fluoro-phenyl)-2-methyl-thiazol-4-yl)-1-((S)-2-(5-phenyl-(1,3,4)oxadiazol-2-ylmethyl)-pyrrolidin-1-yl)-methanone) (Moraveck Corporation, specific activity=35.3 Ci/mmol), diluted to a 10 nM concentration in PBS (4 nM final). […] The final concentration of DMSO in the reactions is equal to or less than 0.1%. Total and nonspecific binding was determined in the absence and presence of 10 μM almorexant. The total volume of each reaction is 200 μL (20 μL of diluted compounds, 80 μL of [3H]-(1-(5-(2-fluoro-phenyl)-2-methyl-thiazol-4-yl)-1-((S)-2-(5-phenyl-(1,3,4)oxadiazol-2-ylmethyl)-pyrrolidin-1-yl)-methanone) diluted in PBS and 100 μL of the cell suspension). […] The plates were washed 3 times by aspirating 30 ml PBS through the plates. Plates were dried in 55° C. oven for 60 min, scintillation fluid was added, and the radioactivity was counted on a Topcount (Packard).

human orexin 1 receptor = human orexin 1 receptor (Homo sapiens, UniProt O43613); assay: Human orexin 1 receptor radioligand binding; conditions: CHO cells stably expressing human orexin 1 receptor; apparent Ki; read-out: hOX1 Ki
Protocol: The in vitro affinity of the compounds of the invention for the rat/human orexin 1 and human orexin 2 receptors was determined by competitive radioligand binding using [^3H](1-(5-(2-fluoro-phenyl)-2-methyl-thiazol-4-yl)-1-((S)-2-(5-phenyl-(1,3,4)oxadiazol-2-ylmethyl)-pyrrolidin-1-yl)-methanone)(Langmead et al., 2004) and [^3H]EMPA (n-ethyl-2[96-methoxy-pyridin-3-yl)-(toluene-2-sulfonyl)-amino]-N-pyridin-3-ylmethyl acetamide), respectively (Langmead et al., 2004, British Journal of Pharmacology 141:340-346; Malherbe et al., 2004, British Journal of Pharmacology 156:1326-41).
Human Embryonic Kidney 293 cells (HEK293) stably expressing rat orexin 1 receptor (Genebank accession number NM_001525) or Chinese ovary cells (CHO) stably expressing human orexin 1 receptor (Genebank accession number NM_001526) were grown to confluency in DMEM (Hyclone, cat #SH30022), 10% FBS, 1× Pen/Strep, 1× sodium pyruvate, 10 mM HEPES, 600 µg/mL G418 and DMEM/F12 (Gibco, Cat #11039), 10% FBS, 1× Pen/Strep, 600 µg/mL G418 media, respectively on 150 cm^2 tissue culture plates, washed with 5 mM EDTA in PBS (HyClone Dulbecco's Phoshpate Buffered Saline 1× with Calcium and Magnesium, Cat #SH30264.01, hereafter referred to simply as PBS) and scraped into 50 ml tubes. After centrifugation (2K×G, 5 min at 4° C.), the supernatant was aspirated and the pellets frozen and stored at −80° C. Cells were resuspended in PBS in the presence of 1 tablet of protease inhibitor cocktail (Roche, Cat. #11836145001) per 50 mL. Each cell pellet from a 15 cm plate was resuspended in 10 mL, stored on ice, and homogenized for 45 sec prior to addition to the reactions. Competition binding experiments in 96 well polypropylene plates were performed using [^3H]-(1-(5-(2-fluoro-phenyl)-2-methyl-thiazol-4-yl)-1-((S)-2-(5-phenyl-(1,3,4)oxadiazol-2-ylmethyl)-pyrrolidin-1-yl)-methanone) (Moraveck Corporation, specific activity=35.3 Ci/mmol), diluted to a 10 nM concentration in PBS (4 nM final). […] The final concentration of DMSO in the reactions is equal to or less than 0.1%. Total and nonspecific binding was determined in the absence and presence of 10 μM almorexant. The total volume of each reaction is 200 μL (20 μL of diluted compounds, 80 μL of [3H]-(1-(5-(2-fluoro-phenyl)-2-methyl-thiazol-4-yl)-1-((S)-2-(5-phenyl-(1,3,4)oxadiazol-2-ylmethyl)-pyrrolidin-1-yl)-methanone) diluted in PBS and 100 μL of the cell suspension). Reactions were run for 60 min at room temperature and terminated by filtration through GF/C filter plates (PerkinElmer, Cat. #6005174) presoaked in 0.3% polyethylenimine using the cell harvester (PerkinElmer Filtermate). The plates were washed 3 times by aspirating 30 ml PBS through the plates. Plates were dried in 55° C. oven for 60 min, scintillation fluid was added, and the radioactivity was counted on a Topcount (Packard).

human orexin 2 receptor = human orexin 2 receptor (Homo sapiens (Human), UniProt O43614); assay: Human orexin 2 receptor radioligand binding ([3H]-EMPA); conditions: HEK293 stably expressing human orexin 2 receptor; [3H]-EMPA; apparent Ki; read-out: hOX2 Ki
Protocol: After centrifugation (2K×G, 5 min at 4° C.), the supernatant was aspirated and the pellets frozen and stored at −80° C. […] Each cell pellet from a 15 cm plate was resuspended in 10 mL, stored on ice, and homogenized for 45 sec just prior to addition to the reactions. Competition binding experiments in 96 well polypropylene plates were performed using [^3H]-EMPA (Moraveck Corporation, specific activity=29.6 Ci/mmol), diluted to a 5 nM concentration in PBS (2 nM final concentration). […] The final concentration of DMSO in the reactions is equal to or less than 0.1%. Total and nonspecific binding was determined in the absence and presence of […]. The total volume of each reaction is 200 μL (20 μL of diluted compounds, 80 μL of [^3H]-EMPA diluted in PBS and 100 μL of the cell suspension).
The plates were washed 3 times by aspirating 30 ml PBS through the plates. Plates were dried in 55° C. oven for 60 min, scintillation fluid was added, and the radioactivity was counted on a Topcount (Packard).

human orexin 2 receptor, sequence (O43614 whole entry): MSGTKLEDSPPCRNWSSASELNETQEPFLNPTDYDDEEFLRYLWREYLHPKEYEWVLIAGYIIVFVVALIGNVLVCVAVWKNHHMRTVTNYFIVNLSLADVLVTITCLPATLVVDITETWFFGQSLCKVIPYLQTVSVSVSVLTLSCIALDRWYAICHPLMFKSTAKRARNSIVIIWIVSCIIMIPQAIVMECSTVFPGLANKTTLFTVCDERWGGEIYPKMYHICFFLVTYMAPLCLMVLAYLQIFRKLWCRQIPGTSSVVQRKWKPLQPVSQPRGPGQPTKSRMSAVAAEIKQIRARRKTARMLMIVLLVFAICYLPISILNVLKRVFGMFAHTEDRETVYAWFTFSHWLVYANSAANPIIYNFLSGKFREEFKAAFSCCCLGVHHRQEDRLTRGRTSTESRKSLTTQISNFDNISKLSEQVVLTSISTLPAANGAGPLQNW

Ki (rat orexin 1 receptor) [µM]	Ki (human orexin 1 receptor) [µM]	Ki (human orexin 2 receptor) [µM]	SMILES
0.015	0.009	0.92	Cc1ccc(C(=O)N2CCC[C@@H](Nc3ccc(C(F)(F)F)cn3)[C@@H]2C)c(-n2nccn2)c1 (racemic) [Example 13, (±)-trans-(4-methyl-2-(2H-1,2,3-triazol-2-yl)phenyl)(2-methyl-3-((5-(trifluoromethyl)pyridin-2-yl)amino)piperidin-1-yl)methanone]
0.01	0.01	0.238	COc1ccc(-n2nccn2)c(C(=O)N2CCC[C@@H](Nc3ccc(C(F)(F)F)cn3)[C@@H]2C)c1 (racemic) [Example 19, (±)-trans-(5-methoxy-2-(2H-1,2,3-triazol-2-yl)phenyl)(2-methyl-3-((5-(trifluoromethyl)pyridin-2-yl)amino)piperidin-1-yl)methanone]
0.014	0.008	0.15	Cc1cccc(C(=O)N2CCC[C@@H](Nc3ccc(C(F)(F)F)cn3)[C@@H]2C)c1-n1nccn1 (racemic) [Example 20, (±)-trans-(3-methyl-2-(2H-1,2,3-triazol-2-yl)phenyl)(2-methyl-3-((5-(trifluoromethyl)pyridin-2-yl)amino)piperidin-1-yl)methanone]
0.097	0.09	1.4	CCOc1ccccc1C(=O)N1CCC[C@@H](Nc2ccc(C(F)(F)F)cn2)[C@@H]1C (racemic) [Example 29, (±)-trans-(2-ethoxyphenyl)(2-methyl-3-((5-(trifluoromethyl)pyridin-2-yl)amino)piperidin-1-yl)methanone]
0.018	0.025	0.529	C[C@H]1[C@H](Nc2cnc(C(F)(F)F)cn2)CCCN1C(=O)c1ccccc1-n1nccn1 (racemic) [Example 38, (±)-trans-(2-(2H-1,2,3-triazol-2-yl)phenyl)(2-methyl-3-((5-(trifluoromethyl)pyrazin-2-yl)amino)piperidin-1-yl)methanone]
0.082	0.072	1.6	CCOc1ccccc1C(=O)N1CCC[C@@H](Nc2ccc(Br)cn2)[C@@H]1C (racemic) [Example 44, (±)-trans-(3-(5-bromopyridin-2-yl)amino)-2-methylpiperidin-1-yl)(2-ethoxyphenyl)methanone]
0.028	0.026	0.281	C[C@H]1[C@H](Nc2nc3cc(Cl)ccc3o2)CCCN1C(=O)c1ccccc1-n1nccn1 (racemic) [Example 45, (±)-trans-(2-(2H-1,2,3-triazol-2-yl)phenyl)(3-((5-chlorobenzo[d]oxazol-2-yl)amino)-2-methylpiperidin-1-yl)methanone]
0.009	0.007	0.681	Cc1ccc(C(=O)N2CCC[C@@H](Nc3ccc(C(F)(F)F)cn3)[C@@H]2C)c(-n2nccn2)c1 [Example 14, (4-methyl-2-(2H-1,2,3-triazol-2-yl)phenyl)((2S,3R)-2-methyl-3-((5-(trifluoromethyl)pyridin-2-yl)amino)piperidin-1-yl)methanone]
0.011	0.014	2.04	Cc1cnc(C(=O)N2CCC[C@@H](Nc3ccc(C(F)(F)F)cn3)[C@@H]2C)c(-n2nccn2)c1 [Example 26, ((2S,3R)-2-methyl-3-((5-(trifluoromethyl)pyridin-2-yl)amino)piperidin-1-yl)(5-methyl-3-(2H-1,2,3-triazol-2-yl)pyridin-2-yl)methanone]
0.01	0.012	1.5	Cc1ccc(C(=O)N2CCC[C@@H](Nc3ncc(C(F)(F)F)cn3)[C@@H]2C)c(-n2nccn2)c1 [Example 71, (4-methyl-2-(2H-1,2,3-triazol-2-yl)phenyl)((2S,3R)-2-methyl-3-((5-(trifluoromethyl)pyrimidin-2-yl)amino)piperidin-1-yl)methanone]

SMILES	Ki (rat orexin 1 receptor) [µM]	Ki (human orexin 1 receptor) [µM]	Ki (human orexin 2 receptor) [µM]
C[C@H]1[C@H](Nc2ccc(C(F)(F)F)cn2)CCCN1C(=O)c1cc(Cl)ccc1-n1nccn1 (racemic) [Example 17, (±)-trans-(5-chloro-2-(2H-1,2,3-triazol-2-yl)phenyl)(2-methyl-3-((5-(trifluoromethyl)pyridin-2-yl)amino)piperidin-1-yl)methanone]	0.011	0.008	0.221
Cc1ccc(-c2ncco2)c(C(=O)N2CCC[C@@H](Nc3ccc(C(F)(F)F)cn3)[C@@H]2C)n1 (racemic) [Example 22, (±)-trans-(2-methyl-3-((5-(trifluoromethyl)pyridin-2-yl)amino)piperidin-1-yl)(6-methyl-3-(oxazol-2-yl)pyridin-2-yl)methanone hydrochloride]	0.033	0.019	0.422
C[C@H]1[C@H](Nc2ccc(C(F)(F)F)nn2)CCCN1C(=O)c1ccccc1-n1nccn1 (racemic) [Example 33, (±)-trans-(2-(2H-1,2,3-triazol-2-yl)phenyl)(2-methyl-3-((6-(trifluoromethyl)pyridazin-3-yl)amino)piperidin-1-yl)methanone hydrochloride]	0.199	0.16	4.8
Cc1ccc(-c2ncco2)c(C(=O)N2CCC[C@@H](Nc3ccc(C(F)(F)F)cn3)[C@@H]2C)n1 [Example 25, ((2S,3R)-2-methyl-3-((5-(trifluoromethyl)pyridin-2-yl)amino)piperidin-1-yl)(6-methyl-3-(oxazol-2-yl)pyridin-2-yl)methanone hydrochloride]	0.011	0.019	0.19
Cc1ccc(C(=O)N2CCC[C@@H](Nc3ncc(C(F)(F)F)cn3)[C@@H]2C)c(-n2nccn2)n1 [Example 69, (6-methyl-2-(2H-1,2,3-triazol-2-yl)pyridin-3-yl)((2S,3R)-2-methyl-3-((5-(trifluoromethyl)pyrimidin-2-yl)amino)piperidin-1-yl)methanone]	0.07	0.112	> 10
Cc1ccc(C(=O)N2CCC[C@@H](Nc3ncc(C(F)(F)F)cn3)[C@@H]2C)c(-n2ccnn2)n1 [Example 70, (6-methyl-2-(1H-1,2,3-triazol-1-yl)pyridin-3-yl)((2S,3R)-2-methyl-3-((5-(trifluoromethyl)pyrimidin-2-yl)amino)piperidin-1-yl)methanone]	0.17	0.165	7.5
